{"source": "patent US20230129866A1", "about": "(PureTech LYT 100, Inc., priority 2020, published 2023)", "key": {"LPS-induced plasma TNFα": {"system": "LPS-induced plasma TNFα", "assay": "LPS-induced plasma TNF-α after oral pretreatment in rats", "type": "in vivo, Sprague-Dawley rats", "conditions": "Mean ± St. Dev., n = 6-8; for Plasma TNFα concentrations 4 hours after LPS: vehicle 693 ± 553; for Plasma TNFα concentrations 1.5 hours after LPS: vehicle 75389 ± 29107", "procedure": "(§1) LPS was diluted with sterile saline to […] and sonicated at 40° C. for 20 minutes to generate a stock solution and stored at 4° C. Each day of use, the stock solution was further diluted to 0.03 mg/mL in sterile saline.\n(§2) Male Sprague-Dawley rats with indwelling femoral and jugular venous catheters (n=6-8 per dose and test article group) were used in this study. […] Sixty minutes after the oral dose, 0.03 mg/kg of LPS in 1 mL/kg saline was infused into the jugular vein.\n(§3) Blood samples were collected from the femoral vein into heparin-coated syringes 15 minutes prior to the LPS infusion (45 minutes after oral doses of test article), 90 minutes after the LPS infusion and 4 hours after the LPS infusion. Plasma was prepared by centrifugation of the blood samples at 14,000 rpm for 10 minutes. Plasma samples were stored at −70 ° C. until analysis."}, "LPS-induced plasma IL-6": {"system": "LPS-induced plasma IL-6", "assay": "LPS-induced plasma IL-6 after oral pretreatment in rats", "type": "in vivo, Sprague-Dawley rats", "conditions": "Mean ± St. Dev, n = 6-8; for Plasma IL-6 concentrations 4 hours after LPS: vehicle 13989 ± 6125; for Plasma IL-6 concentrations 1.5 hours after LPS: vehicle 40423 ± 8653", "procedure": "as §1, §2, §3"}, "[1]": {"conditions": "rat, in vivo"}, "[2]": {"conditions": "human, in vivo, po"}, "[3]": {"conditions": "200 mg SD-559 (pirfenidone) BID, Huang et al.; in ng/mL; cited from earlier work"}, "[4]": {"conditions": "cited from earlier work"}, "[5]": {"conditions": "humans, cited from earlier work"}, "[6]": {"conditions": "cited from earlier work", "remark": "listed apart in the source"}, "[7]": {"conditions": "30 mg/kg oral pretreatment 1 hour prior to LPS injection"}, "[8]": {"conditions": "100 mg/kg oral pretreatment 1 hour prior to LPS injection"}, "[9]": {"conditions": "300 mg/kg oral pretreatment 1 hour prior to LPS injection"}, "[10]": {"conditions": "Pirfenidone @801 mg, Rubino et al."}, "[11]": {"conditions": "Lancaster et al. 2017, frequencies as high as"}, "[12]": {"conditions": "multinational post-marketing study"}, "[13]": {"conditions": "single-center retrospective observational study, 351 patients"}}, "note": "Like-named read-outs stand apart in the source and are kept apart here.", "data": [{"smiles": "Cc1ccc(=O)n(-c2ccccc2)c1", "note": "[Pirfenidone, 5-methyl-1-phenyl-1H-pyridin-2-one]", "values": [{"measurement": "Plasma TNFα concentrations 4 hours after LPS", "setting": "LPS-induced plasma TNFα; [7]", "result": "346 ± 83", "unit": "pg/mL"}, {"measurement": "Plasma TNFα concentrations 1.5 hours after LPS", "setting": "LPS-induced plasma TNFα; [7]", "result": "46138 ± 20266", "unit": "pg/mL"}, {"measurement": "Plasma TNFα concentrations 4 hours after LPS", "setting": "LPS-induced plasma TNFα; [8]", "result": "207 ± 92", "unit": "pg/mL"}, {"measurement": "Plasma TNFα concentrations 1.5 hours after LPS", "setting": "LPS-induced plasma TNFα; [8]", "result": "22230 ± 16540", "unit": "pg/mL"}, {"measurement": "Plasma TNFα concentrations 4 hours after LPS", "setting": "LPS-induced plasma TNFα; [9]", "result": "131 ± 32", "unit": "pg/mL"}, {"measurement": "Plasma TNFα concentrations 1.5 hours after LPS", "setting": "LPS-induced plasma TNFα; [9]", "result": "11495 ± 10753", "unit": "pg/mL"}, {"measurement": "Plasma IL-6 concentrations 4 hours after LPS", "setting": "LPS-induced plasma IL-6; [7]", "result": "8886 ± 5321", "unit": "pg/mL"}, {"measurement": "Plasma IL-6 concentrations 1.5 hours after LPS", "setting": "LPS-induced plasma IL-6; [7]", "result": "25173 ± 10651", "unit": "pg/mL"}, {"measurement": "Plasma IL-6 concentrations 4 hours after LPS", "setting": "LPS-induced plasma IL-6; [8]", "result": "4603 ± 2524", "unit": "pg/mL"}, {"measurement": "Plasma IL-6 concentrations 1.5 hours after LPS", "setting": "LPS-induced plasma IL-6; [8]", "result": "26226 ± 8434", "unit": "pg/mL"}, {"measurement": "Plasma IL-6 concentrations 4 hours after LPS", "setting": "LPS-induced plasma IL-6; [9]", "result": "2361 ± 1185", "unit": "pg/mL"}, {"measurement": "Plasma IL-6 concentrations 1.5 hours after LPS", "setting": "LPS-induced plasma IL-6; [9]", "result": "18692 ± 9996", "unit": "pg/mL"}, {"measurement": "Accumulation after multiple dosing for 28 Days", "setting": "[1]", "result": "No accumulation"}, {"measurement": "Tolerability of single doses", "setting": "[2]", "result": "well tolerated"}, {"measurement": "observed Cmax", "setting": "[3]", "result": 2305}, {"measurement": "AUC, % Change Fed vs Fasted", "setting": "[4]; [10]", "result": "−15", "unit": "%"}, {"measurement": "Cmax, % Change Fed vs Fasted", "setting": "[4]; [10]", "result": "−49", "unit": "%"}, {"measurement": "Tmax, % Change Fed vs Fasted", "setting": "[4]; [10]", "result": "+500%"}, {"measurement": "Increase in Tmax, fed vs fasted", "setting": "[4]; pirfenidone 801 mg dose, prior study", "result": 500, "unit": "%"}, {"measurement": "Share of recovered drug material excreted as unchanged pirfenidone", "setting": "[5]; urine", "result": "less than 1%"}, {"measurement": "Oral dose excreted in urine", "setting": "[5]", "result": "approximately 80%"}, {"measurement": "Fatigue frequency (TEAE rate)", "setting": "[6]; [11]", "result": "≤ 52.4", "unit": "per 100PEY"}, {"measurement": "Nausea frequency (TEAE rate)", "setting": "[6]; [11]", "result": "≤ 62.1", "unit": "per 100 PEY"}, {"measurement": "Patients with permanent treatment discontinuation due to adverse drug reactions", "setting": "[6]; PASSPORT long-term observational safety study, Cottin et al. 2018", "result": 28.7, "unit": "%"}, {"measurement": "Treatment discontinuation rate with predominant gastrointestinal side-effects", "setting": "[6]; b281", "result": "> 25", "unit": "%"}, {"measurement": "Patients who had an adverse event", "setting": "[6]; compassionate use program, Raghu & Thickett 2013", "result": 44, "unit": "%"}, {"measurement": "Patients who experienced an adverse event", "setting": "[6]; [12]", "result": "Approximately 73%"}, {"measurement": "Patients with gastrointestinal symptoms", "setting": "[6]; [12]", "result": 38, "unit": "%"}, {"measurement": "Patients with an ADR leading to discontinuation", "setting": "[6]; patients aged <65 years", "result": 7.5, "unit": "%"}, {"measurement": "Patients with an ADR leading to dose modification/interruption", "setting": "[6]; patients aged <65 years", "result": 18.0, "unit": "%"}, {"measurement": "Patients with an ADR leading to discontinuation", "setting": "[6]; patients aged ≥80 years", "result": 20.9, "unit": "%"}, {"measurement": "Patients with an ADR leading to dose modification/interruption", "setting": "[6]; patients aged ≥80 years", "result": 32.7, "unit": "%"}, {"measurement": "Elevations of AST and ALT levels to >3x ULN", "setting": "[6]; phase III trials", "result": 3.2, "unit": "%"}, {"measurement": "Loss of appetite", "setting": "[6]; [13]", "result": 17, "unit": "%"}, {"measurement": "Nausea/vomiting", "setting": "[6]; [13]", "result": 15, "unit": "%"}, {"measurement": "Share of reported AEs that were GI-related", "setting": "[6]; [13]", "result": 75, "unit": "%"}]}]}
